Experimental data published in article PMC12910498 (ACS pharmacology & translational science, 2026).
Read-outs that look alike come from different tables or passages of the source.

How the values were obtained:
human D2R long isoform = human D2R long isoform (Homo sapiens, UniProt P14416); parameters: host or cells: CHO-K1; method as in PMID 30883109; details: antagonist mode; previously reported; cited from earlier work
human D4R [1] = biological target: T1, human D4R (Homo sapiens, UniProt P21917); details: for D4R Ant. (%): antagonist mode, 10 μM forskolin and 10 nM dopamine, normalized to spiperone; for Emax: read-out: D4R Emax (%)
T1 sequence (P21917 1-419): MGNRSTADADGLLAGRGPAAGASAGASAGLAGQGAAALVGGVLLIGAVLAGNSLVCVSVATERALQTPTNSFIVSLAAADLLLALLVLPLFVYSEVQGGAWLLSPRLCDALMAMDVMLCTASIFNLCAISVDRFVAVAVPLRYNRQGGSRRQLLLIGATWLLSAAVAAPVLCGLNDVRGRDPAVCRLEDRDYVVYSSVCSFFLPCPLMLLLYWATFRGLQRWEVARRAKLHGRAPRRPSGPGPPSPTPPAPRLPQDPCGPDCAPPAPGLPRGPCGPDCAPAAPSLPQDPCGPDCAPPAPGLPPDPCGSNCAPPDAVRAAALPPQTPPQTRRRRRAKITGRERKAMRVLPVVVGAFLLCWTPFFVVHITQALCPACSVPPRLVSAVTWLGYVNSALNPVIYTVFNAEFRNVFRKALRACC

[2] = Phase I metabolic stability in rat liver microsomes (with NADPH); type: in vitro ADME; details: pH 7.4, presence of NADPH, mean ± SD, n = 3
Procedure: (§1) We evaluated the Phase I metabolic stability of compounds 2−7 and 14−19 using rat and human liver microsomes, as previously described.[45]
(§2) Phase I metabolic stability assays were conducted using rat and human liver microsomes as previously described[45],[70] with minor modifications. In brief, the reactions were carried out with 100 mM potassium phosphate buffer, pH 7.4, in the presence of NADPH regenerating system (1.3 mM NADPH, 3.3 mM glucose 6-phosphate, 3.3 mM MgCl2, 0.4 U/mL glucose-6-phosphate dehydrogenase, 50 μM sodium citrate). Negative controls without cofactors were assessed to determine the non-CYP-mediated metabolism. Compound disappearance was monitored over time using a liquid chromatography and tandem mass spectrometry (LC/MS) method. All reactions were performed in triplicate.
(§3) Chromatographic analysis was performed on a Dionex ultra high-performance LC system coupled with Q Exactive Focus orbitrap mass spectrometer (Thermo Fisher Scientific Inc., Waltham MA). Separation was achieved using Agilent Eclipse Plus column (100 × 2.1 mm^2 i.d.; maintained at 35 °C) packed with a 1.8 μm C18 stationary phase. […] The total run time for each analyte was 6.5 min. Pumps were operated at a flow rate of 0.3 mL/min. The mass spectrometer controlled by Xcalibur software 4.0.27.13 (Thermo Scientific) was operated with a HESI ion source in positive ionization mode. Compounds were identified in the full-scan mode (from m/z 50 to 750) by comparing t = 0 samples with t = 30 min and t = 60 min samples.

[3] = Phase I metabolic stability in human liver microsomes (with NADPH); type: in vitro ADME; details: pH 7.4, presence of NADPH, mean ± SD, n = 3
Procedure: as §1, §2, §3

human D3R [4] = biological target: T2, human D3R (Homo sapiens, UniProt P35462); parameters: expressed in transfected cells; host or cells: HEK293; method as in PMID 30883109; details: HEK293 membranes, hD3R; previously reported; read-out: Ki (nM) ± SEM [3H]N-methlyspiperone D3R; cited from earlier work
human D3R [5] = biological target: T2, human D3R; parameters: host or cells: CHO-K1; method as in PMID 30883109; details: previously reported, cited from earlier work; for D3R Emax (%): agonist mode
human D4R [6] = biological target: T1, human D4R; parameters: host or cells: CHO-K1; method as in PMID 30883109; details: previously reported, cited from earlier work; for D4R Emax (%): agonist mode; for D4R Ant. (%): antagonist mode
[7] = Non-Phase I metabolic stability in human liver microsomes (absence of NADPH); type: in vitro ADME
Procedure: We also evaluated the non-Phase I metabolic stability of compounds 2−7 and 14−19 using rat and human liver microsomes. […] This may represent metabolism by hydrolases that can specifically attack the amide. Evidence in support of this hypothesis is shown by the remarkable stability of all triazole analogs (14−19) in the absence of NADPH in Figure 5B,D.
as §2
Chromatographic analysis was performed on a Dionex ultra high-performance LC system coupled with Q Exactive Focus orbitrap mass spectrometer (Thermo Fisher Scientific Inc., Waltham MA). Separation was achieved using Agilent Eclipse Plus column (100 × 2.1 mm^2 i.d.; maintained at 35 °C) packed with a 1.8 μm C18 stationary phase. […] The total run time for each analyte was 6.5 min. […]

[8] = Aqueous solubility (remark); type: physicochemical; details: remark in text
human D2LR = human D2LR (Homo sapiens, UniProt P14416); assay: biochemical
human D3R [9] = biological target: T2, human D3R; assay: biochemical
D1 = biological target: T3, D1 (Homo sapiens, UniProt P21728); assay: PDSP primary screen and secondary assay, D1; type: binding; details: 10 µM compound
T3 construct: Psychoactive Drug Screening Program (PDSP)
Description: (§4) Receptor Primary Secondary Primary Secondary Primary Secondary Primary Secondary screen assay screen assay screen assay screen assay […]
(§5) inhibition in primary assessment.

[10] = Pharmacokinetics study in rats (plasma and brain); type: in vivo, Sprague−Dawley rats; details: rat, 5 mg/kg IP
Procedure: Given their adequate in vitro stability profiles, we next evaluated the in vivo pharmacokinetic profiles of 14, 15, 17, and 18 in rats. Sprague−Dawley rats were dosed with 5 mg/kg (14, 15, 17) or 10 mg/kg (18), i.p., and plasma and brain levels of each drug were measured 0−6 h postdose.
All animal experiments were performed following the protocols evaluated and approved by the Animal Care and Use Committee at Johns Hopkins University (Ethics Approval Number: RA24M403). Pharmacokinetic studies in Sprague−Dawley (SD) rats were conducted according to protocols approved. SD rats obtained from Harlan were maintained on a 12 h light−dark cycle with ad libitum access to food and water. Test compound was administered via i.p. injection at a dose of 10 mg/kg (100% saline vehicle, 10 mL/kg volume). The rats were sacrificed at specified time points (0.25, 0.5 h, 1, 2, 4, and 6 h) post drug administration. For the collection of plasma and brain tissue, animals were euthanized with CO2, and blood samples were collected in heparinized microtubes by cardiac puncture. Brains were dissected and immediately flash-frozen (−80 °C). Blood samples were spun at 2000g for 15 min, and plasma was removed and stored at −80 °C until analysis (as described below).
Quantitation of triazole analogs 14, 15, 17, and 18 was performed using liquid chromatography with tandem mass spectrometry (LC/MS-MS) methods. Briefly, calibration standards were prepared using respective tissue (naïve plasma and brain) with additions of the test compounds. For quantifying the test compounds in the pharmacokinetic samples, plasma samples (20 μL) were processed using a single liquid extraction method by addition of 100 μL of acetonitrile containing internal standard (losartan: 0.5 μM), followed by vortex-mixing for 30 s and then centrifugation at 10,000g for 10 min at 4 °C. Brain tissues were diluted 1:5 w/v with acetonitrile containing losartan (0.5 μm) and homogenized, followed by vortex-mixing and centrifugation at 10,000g for 10 min at 4 °C. A 50 μL aliquot of the supernatant was diluted with 50 μL of water and transferred to 250 μL polypropylene autosampler vials sealed with Teflon caps. Two μL of the sample was injected into the LC/MS/MS system for analysis. Chromatographic analysis was performed using an Accela ultra high-performance system consisting of an analytical pump and an autosampler coupled with a TSQ Vantage mass spectrometer. […] The mobile phase consisted of 0.1% formic acid in acetonitrile and 0.1% formic acid in water with gradient elution, starting with 10% organic phase (from 0 to 1 min) linearly increasing to 95% (from 1 to 2 min), and re-equilibrating to 10% by 3 min. The total run time for each analyte was 3.5 min. Pumps were operated at a flow rate of 0.4 mL/min. […] Plasma concentrations (nmol/mL) as well as brain tissue concentrations (nmol/g) were determined and plots of mean plasma concentration versus time were constructed. Noncompartmental analysis modules in Phoenix WinNonlin version 7.0 (Certara USA, Inc., Princeton, NJ) were used to quantify exposures (AUC0−t) and half-life (t1/2).

human D4R [11] = biological target: T1, human D4R; assay: DiscoverX PathHunter β-arrestin recruitment assay, D4R
human D4R [12] = biological target: T1, human D4R; assay: [3H]N-methylspiperone radioligand competition binding, hD4R membranes
D5 = biological target: T4, D5 (Homo sapiens, UniProt P21918); assay: PDSP primary screen, D5; type: binding; details: 10 µM compound
T4 construct: Psychoactive Drug Screening Program (PDSP)
Description: as §4, §5

T2 sequence (P35462 whole entry): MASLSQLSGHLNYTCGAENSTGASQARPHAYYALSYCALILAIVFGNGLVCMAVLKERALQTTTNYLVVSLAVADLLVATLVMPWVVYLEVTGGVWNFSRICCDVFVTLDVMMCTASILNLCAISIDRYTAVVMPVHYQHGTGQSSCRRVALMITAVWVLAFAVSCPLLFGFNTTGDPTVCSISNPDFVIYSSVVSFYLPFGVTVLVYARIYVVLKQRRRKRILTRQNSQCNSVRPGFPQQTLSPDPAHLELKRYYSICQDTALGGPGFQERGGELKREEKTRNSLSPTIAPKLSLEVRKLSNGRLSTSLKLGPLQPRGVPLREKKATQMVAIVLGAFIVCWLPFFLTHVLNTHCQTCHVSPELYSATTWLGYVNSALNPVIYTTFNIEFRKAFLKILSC
human D2R long isoform, sequence (P14416 whole entry, canonical isoform): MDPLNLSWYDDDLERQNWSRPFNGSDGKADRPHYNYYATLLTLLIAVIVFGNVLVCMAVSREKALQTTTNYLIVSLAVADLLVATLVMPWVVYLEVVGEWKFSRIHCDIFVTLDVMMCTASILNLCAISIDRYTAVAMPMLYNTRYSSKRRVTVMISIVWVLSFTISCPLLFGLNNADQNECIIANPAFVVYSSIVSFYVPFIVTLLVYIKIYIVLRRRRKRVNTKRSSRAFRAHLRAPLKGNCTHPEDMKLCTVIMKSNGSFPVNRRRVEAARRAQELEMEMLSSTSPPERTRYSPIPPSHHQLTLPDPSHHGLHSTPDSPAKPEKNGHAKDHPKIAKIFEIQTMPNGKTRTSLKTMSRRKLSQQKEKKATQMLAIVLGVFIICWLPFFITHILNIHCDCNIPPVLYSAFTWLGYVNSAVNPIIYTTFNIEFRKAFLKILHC
T4 sequence (P21918 whole entry): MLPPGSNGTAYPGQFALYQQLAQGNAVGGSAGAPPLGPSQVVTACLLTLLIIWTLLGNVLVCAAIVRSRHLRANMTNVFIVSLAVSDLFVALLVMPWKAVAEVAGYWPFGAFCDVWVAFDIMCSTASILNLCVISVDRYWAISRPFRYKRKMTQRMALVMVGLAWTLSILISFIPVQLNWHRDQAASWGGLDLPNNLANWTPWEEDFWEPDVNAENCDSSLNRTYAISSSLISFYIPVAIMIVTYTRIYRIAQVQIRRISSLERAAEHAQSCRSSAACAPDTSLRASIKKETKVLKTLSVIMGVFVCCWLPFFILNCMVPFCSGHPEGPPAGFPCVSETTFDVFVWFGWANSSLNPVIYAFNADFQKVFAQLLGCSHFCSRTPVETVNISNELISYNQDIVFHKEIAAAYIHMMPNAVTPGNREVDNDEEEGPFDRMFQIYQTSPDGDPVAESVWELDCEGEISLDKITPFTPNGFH
human D2LR, sequence (P14416 whole entry): as the sequence (P14416 whole entry, canonical isoform) above
T3 sequence (P21728 whole entry): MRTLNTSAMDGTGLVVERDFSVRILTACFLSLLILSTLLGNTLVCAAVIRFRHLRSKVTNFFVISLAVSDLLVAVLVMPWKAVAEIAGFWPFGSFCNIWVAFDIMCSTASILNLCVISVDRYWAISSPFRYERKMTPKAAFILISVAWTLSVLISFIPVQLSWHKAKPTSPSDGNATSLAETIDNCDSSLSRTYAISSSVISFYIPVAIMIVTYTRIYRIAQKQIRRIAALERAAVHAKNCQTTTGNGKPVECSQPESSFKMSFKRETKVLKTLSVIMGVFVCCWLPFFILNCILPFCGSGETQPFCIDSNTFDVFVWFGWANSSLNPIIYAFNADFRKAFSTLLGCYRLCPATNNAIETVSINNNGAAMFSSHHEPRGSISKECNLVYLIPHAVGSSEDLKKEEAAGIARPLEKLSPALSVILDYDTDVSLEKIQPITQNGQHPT

| Structure (SMILES) | D2R Ant (%) (human D2R long isoform) | IC50 (human D4R [1]) | D4R Ant. (%) (human D4R [1]; cAMP) | half-life [2] | half-life [3] | Ki (human D3R [4]) | D3R Emax (%) (human D3R [5]) | EC50 (human D4R [1]) | Emax (human D4R [1]) | D4R Emax (%) (human D4R [6]) | D4R Ant. (%) (human D4R [6]) | non-Phase I metabolic stability [7] | IC50 (human D3R [5]; antagonist mode) | further results |
| --- | --- | --- | --- | --- | --- | --- | --- | --- | --- | --- | --- | --- | --- | --- |
| Cc1cccc(NC(=O)CN2CCN(c3ccc(Cl)cn3)CC2)c1 [Compound 7] | 100 ± 0% | 2870 ± 817 nM | 110 ± 7% | 9.51 ± 0.12 min | 74.2 ± 4.56 min | > 50000 nM | – | – | – | – | – | – | – | – |
| CCc1cccc(NC(=O)CN2CCN(c3ccccn3)CC2)c1 [Compound 3] | – | 267 ± 115 nM | 30 ± 1% | 20.8 ± 1.99 min | 249 ± 66.5 min | – | 44.7 ± 5.9% | 5.38 ± 1.08 nM | 59 ± 4% | 26.2 ± 5.1% | 59.7 ± 4.6% | nonexistent | – | D3R Ant. (%) (human D3R [5]; antagonist mode): 100 ± 0% |
| Cc1cccc(NC(=O)CN2CCN(c3cccc4ccccc34)CC2)c1 [Compound 6] | 100 ± 0% | > 50000 nM | 91 ± 7% | 10.5 ± 0.03 min | 16.6 ± 0.17 min | – | – | – | – | 16.4 ± 3.9% | 96.7 ± 2.7% | relatively little non-Phase I metabolism | – | aqueous solubility [8]: poor aqueous solubility; D4R average activity at the highest tested dose (human D4R [1]; cAMP, agonist mode, at 33 μM (Emax ND)): ND (16% at 33 μM) |
| Cc1cccc(NC(=O)CN2CCN(c3ccccn3)CC2)c1 [Compound 2] | – | – | 16 ± 1% | 9.92 ± 0.18 min | 67 ± 2.41 min | > 10000 nM | 49.4 ± 2.0% | 2.92 ± 0.15 nM | 65 ± 3% | 30.7 ± 6.4% | 78.9 ± 3.1% | – | > 100000 nM | – |
| Cc1cccc(NC(=O)CN2CCN(c3ncccn3)CC2)c1 [Compound 4] | – | – | 29 ± 5% | 26.83 ± 0.21 min | 39.8 ± 2.16 min | > 10000 nM | 58.4 ± 6.6% | 7.93 ± 2.12 nM | 60 ± 4% | 24.7 ± 5% | 80.6 ± 3.0% | – | > 100000 nM | – |
| Cc1cccc(-n2cc(CN3CCN(c4ccc(Cl)cn4)CC3)nn2)c1 [Compound 17, 1-(5-Chloropyridin-2-yl)-4-((1-(m-tolyl)-1H-1,2,3-triazol-4-yl)methyl)piperazine] | – | 134 ± 36.4 nM | 85 ± 1% | 64.8 ± 2.12 min | 46.8 ± 6.69 min | – | – | – | – | – | – | – | – | Ki (human D2LR): > 100000 nM; Ki (human D3R [9]): > 100000 nM; inhibition at 10 µM (D1): 16.7%; Kp ([10]; Sprague-Dawley, brain and plasma, ip, 5 mg/kg, AUC brain/plasma, read-out: brain: Plasma ratio): 0.3; half-life ([10]; Sprague-Dawley, brain, ip, 5 mg/kg, brain, read-out: half-life (h) brain (converted)): 2.36 h; half-life ([10]; Sprague-Dawley, plasma and brain, ip, 5 mg/kg, tissue not specified, read-out: half-life (converted)): ≥ 2.1 h; half-life ([10]; Sprague-Dawley, plasma, ip, 5 mg/kg, plasma, read-out: half-life (h) plasma (converted)): 2.1 h; Tmax ([10]; Sprague-Dawley, brain, read-out: Tmax (h) brain): 0.25 h; AUC ([10]; Sprague-Dawley, plasma): 15.1 ± 1.83 µM·h; Cmax ([10]; Sprague-Dawley, plasma): 10 ± 1.27 µM; Tmax ([10]; Sprague-Dawley, plasma, read-out: Tmax (h) plasma): 0.25 h; AUC brain ([10]; brain): 4.57 ± 0.50 nmol·h/g; Cmax brain ([10]; brain): 3.04 ± 0.45 nmol/g; peak in vivo brain concentrations expected ([10]; from brain Cmax): greater than 3.0 μM; IC50 (human D4R [11]): 3800 ± 720 nM; D4R Ant. (%) (human D4R [11]; antagonist mode, EC80 dopamine (1 μM), normalized to spiperone): 91.6 ± 4.7%; Ki (human D4R [12]): 77.7 ± 19.9 nM; Selectivity D2R/D4R (human D4R [12]; ratio of Ki values): >1287; Selectivity D3R/D4R (human D4R [12]; ratio of Ki values): >1287; inhibition at 10 µM (D5): 6.22% |
